# Data: patent publication US20240368174A1, “Antiviral Heterocyclic Compounds” (Enanta Pharmaceuticals, Inc., priority 2023, published 2024)
# System: HMPV clinical isolate A2 strain TN 94-49
# Experiment: HMPV antiviral assay, Method 2 (LLC-MK2 cells with CP-100-356, ATP-Lite)
# Format: cell-based
# Conditions: human metapneumovirus, 168 h; hMPV A2 TN/94-49, LLC-MK2 cells with 4 μM CP-100-356, 7 days, ATP-Lite
# In short: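 EC50 comes from a four-parameter fit of percent cell viability (ATP-Lite, normalized to virus-only and cell-only wells) after 7 days at 37 °C. Infection used HMPV A2 TN 94-49 at MOI 0.16 in LLC-MK2 cells, with 2 μM P-gp inhibitor CP-100-356 and 2 μg/mL TPCK-trypsin final; dose range 200 nM top, 2.5-fold, 10 points, duplicate.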
row,SMILES,EC50
1,COc1cc(C(=O)NC[C@@](O)(c2ccccc2)c2cc3c(c(-n4ncc5c(F)cccc54)n2)OC[C@]3(C)C(N)=O)cc2cn(C(F)F)nc12 [Example 636],< 0.2 µM
2,[2H]C([2H])([2H])c1nc2c(OC)cc(C(=O)NC[C@@](O)(c3ccccc3)c3cc4c(c(-n5ncc6c(F)cccc65)n3)OC[C@]4(C)C(N)=O)cc2s1 [Example 637],< 0.2 µM
3,COc1cc(-c2nc([C@@](O)(CNC(=O)c3cc(OC)c4nc(C5CC5)oc4c3)c3ccccc3)cc3c2OC[C@]3(C)C(N)=O)c(F)cn1 [Example 638],< 0.2 µM
4,COc1cc(-c2nc([C@@](O)(CNC(=O)c3cc(OC)n4nc(C5CC5)cc4c3)c3ccccc3)cc3c2OC[C@]3(C)C(N)=O)c(F)cn1 [Example 639],< 0.2 µM
5,COc1cc(-c2nc([C@@](O)(CNC(=O)c3cc(OC)c4nn(C5(F)CC5)cc4c3)c3ccccc3)cc3c2OC[C@]3(C)C(N)=O)c(F)cn1 [Example 640],< 0.2 µM
6,COc1cc(C(=O)NC[C@](O)(c2cc3c(c(-n4ncc5c4CCCC5)n2)OC[C@]3(C)C(N)=O)C2CC2)cc2cn(C(F)F)nc12 [Example 641],> 0.2 µM
7,COc1cc(C(=O)NC[C@](O)(c2cc3c(c(-n4ncc5c4CCCC5)n2)OC[C@]3(C)C(N)=O)C2CC2)cc2cn(C3CC3)nc12 [Example 642],> 0.2 µM
8,COc1cc(C(=O)NC[C@](O)(c2cc3c(c(-n4ncc5c4CCCC5)n2)OC[C@]3(C)C(N)=O)C2CC2)cc2cn(C3(F)CC3)nc12 [Example 643],> 0.2 µM
9,COc1cc(C(=O)NC[C@](O)(c2cc3c(c(-n4ncc5c4CCCC5)n2)OC[C@]3(C)C(N)=O)C2CC2)cc2oc(C3CC3)nc12 [Example 644],> 0.2 µM
10,COc1nccc(-c2nc([C@@](O)(CNC(=O)c3cc(OC)c4nc(C5CC5)oc4c3)C3(F)CC3)cc3c2OC[C@]3(C)C(N)=O)c1Cl [Example 645],< 0.2 µM
11,COc1cc(C(=O)NC[C@@](O)(c2ccc(F)cc2)c2cc3c(c(-c4ccnc(C)c4Cl)n2)OC[C@]3(C)C(N)=O)cc2cn(C3CC3)nc12 [Example 646],< 0.2 µM
12,COc1cc(C(=O)NC[C@@](O)(c2ccc(F)cc2)c2cc3c(c(-c4ccnc(C)c4Cl)n2)OC[C@]3(C)C(N)=O)cc2cn(C3(F)CC3)nc12 [Example 647],< 0.2 µM
13,COc1cc(C(=O)NC[C@@](O)(c2ccc(F)cc2)c2cc3c(c(-c4ccnc(C)c4Cl)n2)OC[C@]3(C)C(N)=O)cc2cn(C(F)F)nc12 [Example 648],> 0.2 µM
14,COc1cc(C(=O)NC[C@@](O)(c2ccc(F)cc2)c2cc3c(c(-c4ccnc(C)c4Cl)n2)OC[C@]3(C)C(N)=O)cc2oc(C3CC3)nc12 [Example 649],< 0.2 µM
15,C[C@]1(C(N)=O)COc2c1cc([C@@](O)(CNC(=O)c1cc(OC3CC3)c3nn(C4CC4)cc3c1)C1CC1)nc2-n1ncc2c(F)cccc21 [Example 650],< 0.2 µM
16,C[C@]1(C(N)=O)COc2c1cc([C@@](O)(CNC(=O)c1cc(OC3CC3)c3nn(C4(F)CC4)cc3c1)C1CC1)nc2-n1ncc2c(F)cccc21 [Example 651],< 0.2 µM
17,C[C@]1(C(N)=O)COc2c1cc([C@@](O)(CNC(=O)c1cc(OC3CC3)c3nn(C(F)F)cc3c1)C1CC1)nc2-n1ncc2c(F)cccc21 [Example 652],< 0.2 µM
18,COc1nccc(-c2nc([C@@](O)(CNC(=O)c3cc(OC)c4nn(C5CC5)cc4c3)C3(F)CC3)cc3c2OC[C@]3(C)C(N)=O)c1Cl [Example 653],< 0.2 µM
19,COc1nccc(-c2nc([C@@](O)(CNC(=O)c3cc(OC)c4nn(C5(F)CC5)cc4c3)C3(F)CC3)cc3c2OC[C@]3(C)C(N)=O)c1Cl [Example 654],< 0.2 µM
20,COc1nccc(-c2nc([C@@](O)(CNC(=O)c3cc(OC)c4nn(C(F)F)cc4c3)C3(F)CC3)cc3c2OC[C@]3(C)C(N)=O)c1Cl [Example 655],< 0.2 µM
21,COc1nccc(-c2nc([C@@](O)(CNC(=O)c3cc(OC)n4nc(C5CC5)cc4c3)C3(F)CC3)cc3c2OC[C@]3(C)C(N)=O)c1Cl [Example 656],< 0.2 µM
22,COc1nccc(-c2nc([C@@](O)(CNC(=O)c3cc(OC4CC4)c4nn(C5CC5)cc4c3)C3(F)CC3)cc3c2OC[C@]3(C)C(N)=O)c1Cl [Example 657],< 0.2 µM
23,COc1nccc(-c2nc([C@@](O)(CNC(=O)c3cc(OC4CC4)c4nn(C5(F)CC5)cc4c3)C3(F)CC3)cc3c2OC[C@]3(C)C(N)=O)c1Cl [Example 658],< 0.2 µM
24,COc1nccc(-c2nc([C@@](O)(CNC(=O)c3cc(OC)c4nc(C)c(Cl)cc4c3)c3cccc(F)c3)cc3c2OC[C@]3(C)C(N)=O)c1Cl [Example 659],< 0.2 µM
25,C[C@]1(C(N)=O)COc2c1cc([C@@](O)(CNC(=O)c1cc(Cl)c3nn(C4CC4)cc3c1)C1CC1)nc2-c1cc(C(F)(F)F)ncc1F [Example 660],< 0.2 µM
26,COc1cc(C(=O)NC[C@@](O)(c2ccccc2)c2cc3c(c(-c4ccnc(F)c4Cl)n2)OC[C@]3(C)C(N)=O)cc2cn(C(F)F)nc12 [Example 663],< 0.2 µM
27,COc1cc(C(=O)NC[C@@](O)(c2ccccc2)c2cc3c(c(-c4ccnc(F)c4Cl)n2)OC[C@]3(C)C(N)=O)cn2cc(C3CC3)nc12 [Example 664],< 0.2 µM

row,SMILES,EC50
1,COc1cc(C(=O)NC[C@](O)(c2cc3c(c(-c4cc(C(F)(F)F)ncc4F)n2)OC[C@]3(C)C(N)=O)C2(F)CC2)cc2cn(C3CC3)nc12 [Example 665],< 0.2 µM
2,COc1cc(C(=O)NC[C@](O)(c2cc3c(c(-c4cc(C(F)(F)F)ncc4F)n2)OC[C@]3(C)C(N)=O)C2(F)CC2)cc2cn(C3(F)CC3)nc12 [Example 666],< 0.2 µM
3,COc1cc(C(=O)NC[C@](O)(c2cc3c(c(-c4cc(C(F)(F)F)ncc4F)n2)OC[C@]3(C)C(N)=O)C2(F)CC2)cc2cn(C(F)F)nc12 [Example 667],< 0.2 µM
4,COc1cc(C(=O)NC[C@](O)(c2cc3c(c(-c4cc(C(F)(F)F)ncc4F)n2)OC[C@]3(C)C(N)=O)C2(F)CC2)cn2cc(C3CC3)nc12 [Example 668],< 0.2 µM
5,COc1cc(C(=O)NC[C@](O)(c2cc3c(c(-c4cc(C(F)(F)F)ncc4F)n2)OC[C@]3(C)C(N)=O)C2(F)CC2)cc2cc(C3CC3)nn12 [Example 669],< 0.2 µM
6,COc1cc(C(=O)NC[C@](O)(c2cc3c(c(-n4ccc5c(F)cccc54)n2)OC[C@]3(C)C(N)=O)C(F)(F)F)cc2sc(N)nc12 [Example 691],< 0.2 µM
7,COc1cc(C(=O)NC[C@@](O)(c2ccccc2)c2cc3c(c(-c4ccnc(C)c4Cl)n2)OC[C@]3(C)C(N)=O)cc2cn(C3CC3)nc12 [Example 692],< 0.2 µM
8,COc1cc(C(=O)NC[C@@](O)(c2ccccc2)c2cc3c(c(-c4ccnc(C)c4Cl)n2)OC[C@]3(C)C(N)=O)cc2cn(C3(F)CC3)nc12 [Example 693],< 0.2 µM
9,COc1cc(C(=O)NC[C@@](O)(c2ccccc2)c2cc3c(c(-c4ccnc(C)c4Cl)n2)OC[C@]3(C)C(N)=O)cc2cn(C(F)F)nc12 [Example 694],< 0.2 µM
10,COc1cc(C(=O)NC[C@@](O)(c2ccccc2)c2cc3c(c(-c4ccnc(C)c4Cl)n2)OC[C@]3(C)C(N)=O)cc2oc(C3CC3)nc12 [Example 695],< 0.2 µM
11,COc1nccc(-c2nc([C@@](O)(CNC(=O)c3cc(OC)c4nn(C5CC5)cc4c3)c3ccc(F)cc3)cc3c2OC[C@]3(C)C(N)=O)c1Cl [Example 696],< 0.2 µM
12,COc1nccc(-c2nc([C@@](O)(CNC(=O)c3cc(OC)c4nn(C5(F)CC5)cc4c3)c3ccc(F)cc3)cc3c2OC[C@]3(C)C(N)=O)c1Cl [Example 697],< 0.2 µM
13,COc1nccc(-c2nc([C@@](O)(CNC(=O)c3cc(OC)c4nn(C(F)F)cc4c3)c3ccc(F)cc3)cc3c2OC[C@]3(C)C(N)=O)c1Cl [Example 698],< 0.2 µM
14,COc1nccc(-c2nc([C@@](O)(CNC(=O)c3cc(OC)c4nc(C5CC5)oc4c3)c3ccc(F)cc3)cc3c2OC[C@]3(C)C(N)=O)c1Cl [Example 699],< 0.2 µM
15,COc1cc(C(=O)NC[C@@](O)(c2cccc(F)c2)c2cc3c(c(-c4ccnc(C)c4Cl)n2)OC[C@]3(C)C(N)=O)cc2cc(Cl)c(C)nc12 [Example 700],< 0.2 µM
16,COc1cc(C(=O)NC[C@](O)(c2cc3c(c(-n4cc5cc(F)ccc5n4)n2)OC[C@]3(C)C(N)=O)C2CC2)cc2cn(C3CC3)nc12 [Example 719],> 0.2 µM
17,COc1cc(C(=O)NC[C@](O)(c2cc3c(c(-c4cc(C5CC5)ncc4F)n2)OC[C@]3(C)C(N)=O)C2CC2)cc2cn(C3CC3)nc12 [Example 723],< 0.2 µM
18,COc1cc(C(=O)NC[C@](O)(c2cc3c(c(-c4c(F)cncc4Cl)n2)OC[C@]3(C)C(N)=O)C2CC2)cc2cn(C3CC3)nc12 [Example 724],< 0.2 µM
19,COc1cc(C(=O)NC[C@](O)(c2cc3c(c(-c4c(C)cncc4F)n2)OC[C@]3(C)C(N)=O)C2CC2)cc2cn(C3CC3)nc12 [Example 725],< 0.2 µM
20,COc1cc(C(=O)NC[C@](O)(c2cc3c(c(-c4c(C)cncc4C)n2)OC[C@]3(C)C(N)=O)C2CC2)cc2cn(C3CC3)nc12 [Example 726],< 0.2 µM
21,COc1cc(C(=O)NC[C@](O)(c2cc3c(c(-c4ccnc5ccccc45)n2)OC[C@]3(C)C(N)=O)C2CC2)cc2cn(C3CC3)nc12 [Example 727],< 0.2 µM
22,COc1cc(C(=O)NC[C@](O)(c2cc3c(c(-c4ccnc5[nH]ccc45)n2)OC[C@]3(C)C(N)=O)C2CC2)cc2cn(C3CC3)nc12 [Example 728],> 0.2 µM
23,COc1cc(C(=O)NC[C@](O)(c2cc3c(c(-c4c(F)cncc4F)n2)OC[C@]3(C)C(N)=O)C2CC2)cc2cn(C3CC3)nc12 [Example 729],< 0.2 µM
24,COc1cc(C(=O)NC[C@](O)(c2cc3c(c(-c4ccnc(C(F)(F)F)c4)n2)OC[C@]3(C)C(N)=O)C2CC2)cc2cn(C(F)F)nc12 [Example 759],> 0.2 µM
25,COc1cc(C(=O)NC[C@](O)(c2cc3c(c(-c4ccnc(C(F)(F)F)c4)n2)OC[C@]3(C)C(N)=O)C2CC2)cc2cn(C3(F)CC3)nc12 [Example 761],< 0.2 µM
26,COc1cc(C(=O)NC[C@](O)(c2cc3c(c(-c4ccnc(C(F)(F)F)c4)n2)OC[C@]3(C)C(N)=O)C2CC2)cc2oc(C3CC3)nc12 [Example 763],< 0.2 µM
